Patent US20240150377A1, “MODULATORS OF CYSTIC FIBROSIS TRANSMEMBRANE CONDUCTANCE REGULATOR” (VERTEX PHARMACEUTICALS INCORPORATED, priority 2020, published 2024)
Read-outs that look alike come from different tables or passages of the source.

Target: CFTR (Homo sapiens, UniProt P13569)
Experiment: Membrane potential dye, Enteroid Assay A
Type: cell-based
Conditions: for Ent. A Max Activity: chloride transport as % of triple combination control (Enteroid Assay A); for EC50: human enteroid cells, 18-24 hours, acute 10 μM forskolin and 300 nM ivacaftor, read-out: Ent. A EC50
Method: Base medium (ADF+++) consisted of Advanced DMEM/Ham's F12, 2 mM Glutamax, 10 mM HEPES, […] penicillin/streptomycin.
Intestinal enteroid maintenance medium (IEMM) consisted of ADF+++, 1× B27 supplement, 1× N2 supplement, 1.25 mM N-acetyl cysteine, 10 mM Nicotinamide, 50 ng/mL hEGF, 10 nM Gastrin, 1 μg/mL hR-spondin-1, 100 ng/mL hNoggin, TGF-b type 1 inhibitor A-83-01, 100 μg/mL Primocin, 10 μM P38 MAPK inhibitor SB202190.
Bath 1 Buffer consisted of 1 mM MgCl2, 160 mM NaCl, 4.5 mM KCl, 10 mM HEPES, 10 mM Glucose, 2 mM CaCl2).
Chloride Free Buffer consisted of 1 mM Magnesium Gluconate, 2 mM Calcium Gluconate, 4.5 mM Potassium Gluconate, 160 mM Sodium Gluconate, 10 mM HEPES, 10 mM Glucose.
BathI Dye Solution consisted of Bath 1 Buffer, 0.04% Pluronic F127, 20 μM Methyl Oxonol, 30 μM CaCCinh-A01, 30 μM Chicago Sky Blue.
Chloride Free Dye Solution consisted of Chloride Free Buffer, 0.04% Pluronic F127, 20 μM Methyl Oxonol, 30 μM CaCCinh-A01, 30 μM Chicago Sky Blue.
Chloride Free Dye Stimulation Solution consisted of Chloride Free Dye Solution, 10 μM forskolin, 100 μM IBMX, and 300 nM Compound III.
Human intestinal epithelial enteroid cells were obtained from the Hubrecht Institute for Developmental Biology and Stem Cell Research, Utrecht, The Netherlands and expanded in T-Flasks as previously described (Dekkers J F, Wiegerinck C L, de Jonge H R, Bronsveld I, Janssens H M, de Winter-de Groot K M, Brandsma A M, de Jong N W M, Bijvelds M J C, Scholte B J, Nieuwenhuis E E S, van den Brink S, Clevers H, van der Ent C K, Middendorp S and M Beekman J M. A functional CFTR assay using primary cystic fibrosis intestinal organoids. Nat Med. 2013 July;19(7):939-45.).
3. Enteroid Cell Harvesting and Seeding
Cells were recovered in cell recovery solution, collected by centrifugation at 650 rpm for 5 min at 4° C., resuspended in TrypLE and incubated for 5 min at 37° C. Cells were then collected by centrifugation at 650 rpm for 5 min at 4° C. and resuspended in IEMM containing 10 μM ROCK inhibitor (RI). The cell suspension was passed through a 40 μm cell strainer and resuspended at 1×10^6 cells/mL in IEMM containing 10 μM RI. Cells were seeded at 5000 cells/well into multi-well plates and incubated for overnight at 37° C., 95% humidity and 5% CO2 prior to assay.
4. Membrane Potential Dye, Enteroid Assay A
Enteroid cells were incubated with test compound in IEMM for 18-24 hours at 37° C., 95% humidity and 5% CO2. […] Briefly, cells were washed 5 times in Bath 1 Buffer. Bath 1 Dye Solution was added, and the cells were incubated for 25 min at room temperature. Following dye incubation, cells were washed 3 times in Chloride Free Dye Solution. Chloride transport was initiated by addition of Chloride Free Dye Stimulation Solution and the fluorescence signal was read for 15 min. […] Chloride transport was then expressed as a percentage of the chloride transport following treatment with 3 μM N-[(6-amino-2-pyridyl)sulfonyl]-6-(3-fluoro-5-isobutoxy-phenyl)-2-[(4S)-2,2,4-trimethylpyrrolidin-1-yl]pyridine-3-carboxamide, 3 μM (R)-1-(2,2-difluorobenzo[d][1,3]dioxol-5-yl)-N-(1-(2,3-dihydroxypropyl)-6-fluoro-2-(1-hydroxy-2-methylpropan-2-yl)-1H-indol-5-yl)cyclopropanecarboxamide and 300 nM acute N-[2,4-bis(1,1-dimethylethyl)-5-hydroxyphenyl]-1,4-dihydro-4-oxoquinoline-3-carboxamide triple combination control (% Activity).

Sequence of CFTR (P13569 with tags, fused parts or gaps DEL508-508): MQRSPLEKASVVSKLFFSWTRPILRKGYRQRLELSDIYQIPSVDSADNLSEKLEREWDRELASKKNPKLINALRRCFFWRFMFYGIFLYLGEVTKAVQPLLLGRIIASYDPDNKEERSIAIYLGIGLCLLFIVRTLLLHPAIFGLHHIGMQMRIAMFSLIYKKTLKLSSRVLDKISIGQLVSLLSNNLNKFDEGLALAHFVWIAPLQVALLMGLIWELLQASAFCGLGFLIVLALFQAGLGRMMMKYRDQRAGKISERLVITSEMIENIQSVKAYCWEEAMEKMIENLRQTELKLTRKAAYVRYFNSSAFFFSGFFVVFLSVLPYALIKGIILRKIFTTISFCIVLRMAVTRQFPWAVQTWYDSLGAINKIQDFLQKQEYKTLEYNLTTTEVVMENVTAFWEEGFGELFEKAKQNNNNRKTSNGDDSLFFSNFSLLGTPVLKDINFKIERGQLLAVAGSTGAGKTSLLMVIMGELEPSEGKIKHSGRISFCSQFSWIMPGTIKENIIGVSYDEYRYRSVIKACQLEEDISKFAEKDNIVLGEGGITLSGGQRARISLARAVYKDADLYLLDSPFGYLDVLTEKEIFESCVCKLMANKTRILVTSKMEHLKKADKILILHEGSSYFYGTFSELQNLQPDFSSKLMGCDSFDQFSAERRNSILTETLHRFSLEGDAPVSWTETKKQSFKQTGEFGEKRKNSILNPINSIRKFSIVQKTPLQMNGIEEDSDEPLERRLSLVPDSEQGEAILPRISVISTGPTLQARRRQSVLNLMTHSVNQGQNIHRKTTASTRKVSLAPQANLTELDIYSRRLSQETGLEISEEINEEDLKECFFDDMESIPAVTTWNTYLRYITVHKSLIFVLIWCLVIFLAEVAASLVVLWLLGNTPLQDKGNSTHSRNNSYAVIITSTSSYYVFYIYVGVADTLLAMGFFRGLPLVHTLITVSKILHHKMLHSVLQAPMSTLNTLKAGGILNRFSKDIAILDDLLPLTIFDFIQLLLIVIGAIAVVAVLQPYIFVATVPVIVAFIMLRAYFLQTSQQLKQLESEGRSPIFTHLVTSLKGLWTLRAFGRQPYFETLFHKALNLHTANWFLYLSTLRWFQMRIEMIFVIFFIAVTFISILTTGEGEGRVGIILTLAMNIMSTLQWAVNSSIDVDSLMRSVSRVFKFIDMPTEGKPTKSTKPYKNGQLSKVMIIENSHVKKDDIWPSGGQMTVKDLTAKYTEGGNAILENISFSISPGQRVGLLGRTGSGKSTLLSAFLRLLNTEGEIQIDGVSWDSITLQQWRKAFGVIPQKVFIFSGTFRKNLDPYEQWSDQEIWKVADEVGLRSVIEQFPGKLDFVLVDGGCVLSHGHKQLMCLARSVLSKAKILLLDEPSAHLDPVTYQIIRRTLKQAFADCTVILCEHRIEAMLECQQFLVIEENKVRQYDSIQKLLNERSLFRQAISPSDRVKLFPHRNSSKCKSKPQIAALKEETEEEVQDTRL

Compound	Ent. A Max Activity (Table 6)	EC50 (Table 6) [nM]	Ent. A Max Activity (Table 7)	EC50 (Table 7) [nM]
Cc1cccc(C)c1-c1cc2nc(n1)NS(=O)(=O)c1cccc(c1)C(=O)N(C)CC(CN(CCC(C)(C)C)CCC(C)(C)C)O2 (stereo not drawn) [Compound 98, 10-[[bis(3,3-Dimethylbutyl)amino]methyl]-6-(2,6-dimethylphenyl)-12-methyl-2,2-dioxo-9-oxa-2λ^6-thia-3,5,12,19-tetrazatricyclo[12.3.1.14,8]nonadeca-1(18),4(19),5,7,14,16-hexaen-13-one]	+++ (+++ is >60%)	< 1000	–	–
Cc1cccc(C)c1-c1cc2nc(n1)NS(=O)(=O)c1cccc(c1)C(=O)N(C)[C@H](CC(C)C)C(c1ccccn1)O2 (stereo partly drawn) [Compound 337]	–	–	+++ (+++ is >60%)	< 1000
Cc1cccc(C)c1-c1cc2nc(n1)NS(=O)(=O)c1cccc(c1)C(=O)N(CCC(C)C)CC(c1ccc(C(C)(C)C)cc1)O2 (stereo not drawn) [Compound 341]	++ (++ is 30-60%)	1000 to 3000	–	–
Cc1cccc(C)c1-c1cc2nc(n1)NS(=O)(=O)c1cccc(c1)C(=O)N(CCC1CCOCC1)CC(c1ccc(C(C)(C)C)cc1)O2 (stereo not drawn) [Compound 342]	+++ (+++ is >60%)	< 1000	–	–
Cc1ccccc1-c1cc2nc(n1)NS(=O)(=O)c1cccc(c1)C(=O)N(C)[C@H](CC(C)C)[C@H](c1ccc(C(C)(C)C)cn1)O2 [Compound 343]	+++ (+++ is >60%)	< 1000	–	–
Cc1cccc(C)c1-c1cc2nc(n1)NS(=O)(=O)c1cccc(c1)C(=O)N(CC1CCCN1)[C@H](CC(C)C)CO2 (stereo partly drawn) [Compound 344]	+++ (+++ is >60%)	< 1000	–	–
Cc1cccc(C)c1-c1cc2nc(n1)NS(=O)(=O)c1cccc(c1)C(=O)N(Cc1ccnn1C)[C@H](CC(C)C)CO2 [Compound 345]	+++ (+++ is >60%)	< 1000	–	–
Cc1cccc(C)c1-c1cc2nc(n1)NS(=O)(=O)c1cccc(c1)C(=O)N(CC1CCCN1C(=O)OC(C)(C)C)[C@H](CC(C)C)CO2 (stereo partly drawn) [Compound 346]	+++ (+++ is >60%)	< 1000	–	–
COc1cccc(CN2C(=O)c3cccc(c3)S(=O)(=O)Nc3nc(cc(-c4c(C)cccc4C)n3)OC[C@H]2CC(C)C)c1 [Compound 348]	+++ (+++ is >60%)	< 1000	–	–
COc1ccccc1CN1C(=O)c2cccc(c2)S(=O)(=O)Nc2nc(cc(-c3c(C)cccc3C)n2)OC[C@H]1CC(C)C [Compound 349]	+++ (+++ is >60%)	< 1000	–	–
Cc1cccc(C)c1-c1cc2nc(n1)NS(=O)(=O)c1cccc(c1)C(=O)N(CC1CCCC1)[C@H](CC(C)C)CO2 [Compound 350]	+++ (+++ is >60%)	< 1000	–	–
Cc1cccc(C)c1-c1cc2nc(n1)NS(=O)(=O)c1cccc(c1)C(=O)N(CC1CC3C=C[C@@H]1C3)[C@H](CC(C)C)CO2 (stereo partly drawn) [Compound 351]	+++ (+++ is >60%)	< 1000	–	–
Cc1cccc(C)c1-c1cc2nc(n1)NS(=O)(=O)c1cccc(c1)C(=O)N(CC1CCOCC1)[C@H](CC(C)C)CO2 [Compound 352]	+++ (+++ is >60%)	< 1000	–	–
Cc1cccc(C)c1-c1cc2nc(n1)NS(=O)(=O)c1cccc(c1)C(=O)N(CCCn1cccn1)[C@H](CC(C)C)CO2 [Compound 354]	+++ (+++ is >60%)	< 1000	–	–
Cc1cccc(C)c1-c1cc2nc(n1)NS(=O)(=O)c1cccc(c1)C(=O)N(CCc1ccccc1)[C@H](CC(C)C)CO2 [Compound 355]	+++ (+++ is >60%)	< 1000	–	–
Cc1ccccc1CN1C(=O)c2cccc(c2)S(=O)(=O)Nc2nc(cc(-c3c(C)cccc3C)n2)OC[C@H]1CC(C)C [Compound 356]	+++ (+++ is >60%)	< 1000	–	–
Cc1cccc(C)c1-c1cc2nc(n1)NS(=O)(=O)c1cccc(c1)C(=O)N(CC1CCOC1)[C@H](CC(C)C)CO2 (stereo partly drawn) [Compound 357]	+++ (+++ is >60%)	< 1000	–	–

Compound	Ent. A Max Activity (Table 6)	EC50 (Table 6) [nM]	Ent. A Max Activity (Table 7)	EC50 (Table 7) [nM]
Cc1cccc(C)c1-c1cc2nc(n1)NS(=O)(=O)c1cccc(c1)C(=O)N(CCC1CCCCC1)[C@H](CC(C)C)CO2 [Compound 358]	+++ (+++ is >60%)	< 1000	–	–
Cc1cccc(C)c1-c1cc2nc(n1)NS(=O)(=O)c1cccc(c1)C(=O)N(CCCC(=O)O)[C@H](CC(C)C)CO2 [Compound 359]	++ (++ is 30-60%)	3000 to 30000	–	–
Cc1cccc(C)c1-c1cc2nc(n1)NS(=O)(=O)c1cccc(c1)C(=O)N(CC1CCN(C)CC1)[C@H](CC(C)C)CO2 [Compound 360]	+++ (+++ is >60%)	1000 to 3000	–	–
Cc1cccc(C)c1-c1cc2nc(n1)NS(=O)(=O)c1cccc(c1)C(=O)N(Cc1cccnc1)[C@H](CC(C)C)CO2 [Compound 364]	+++ (+++ is >60%)	< 1000	–	–
Cc1cccc(C)c1-c1cc2nc(n1)NS(=O)(=O)c1cccc(c1)C(=O)N(Cc1cncn1C)[C@H](CC(C)C)CO2 [Compound 365]	+++ (+++ is >60%)	1000 to 3000	–	–
Cc1cccc(C)c1-c1cc2nc(n1)NS(=O)(=O)c1cccc(c1)C(=O)N(CC1CC1)[C@H](CC(C)C)CO2 [Compound 366]	+++ (+++ is >60%)	< 1000	–	–
COC(=O)CCCN1C(=O)c2cccc(c2)S(=O)(=O)Nc2nc(cc(-c3c(C)cccc3C)n2)OC[C@H]1CC(C)C [Compound 367]	+++ (+++ is >60%)	< 1000	–	–
Cc1cccc(C)c1-c1cc2nc(n1)NS(=O)(=O)c1cccc(c1)C(=O)N(Cc1cnc3ccccn13)[C@H](CC(C)C)CO2 [Compound 368]	+++ (+++ is >60%)	< 1000	–	–
Cc1cccc(C)c1-c1cc2nc(n1)NS(=O)(=O)c1cccc(c1)C(=O)N(CCC(C)C)[C@H](CC(C)C)CO2 [Compound 369]	+++ (+++ is >60%)	< 1000	–	–
Cc1cccc(C)c1-c1cc2nc(n1)NS(=O)(=O)c1cccc(c1)C(=O)N(CCC(C1CC1)C1CC1)[C@H](CC(C)C)CO2 [Compound 413]	–	–	+++ (+++ is >60%)	< 1000
Cc1cccc(C)c1-c1cc2nc(n1)NS(=O)(=O)c1cccc(c1)C(=O)N(CC1CC3(CCN(C(C)C)CC3)C1)[C@H](CC(C)C)CO2 [Compound 415]	–	–	+++ (+++ is >60%)	< 1000
Cc1cccc(C)c1-c1cc2nc(n1)NS(=O)(=O)c1cccc(c1)C(=O)N(CC1CC13CCOCC3)[C@H](CC(C)C)CO2 (stereo partly drawn) [Compound 416]	–	–	+++ (+++ is >60%)	< 1000
Cc1cccc(C)c1-c1cc2nc(n1)NS(=O)(=O)c1cccc(c1)C(=O)N(Cc1cccn(C)c1=O)[C@H](CC(C)C)CO2 [Compound 417]	–	–	+++ (+++ is >60%)	< 1000
COc1ncccc1CN1C(=O)c2cccc(c2)S(=O)(=O)Nc2nc(cc(-c3c(C)cccc3C)n2)OC[C@H]1CC(C)C [Compound 420]	+++ (+++ is >60%)	< 1000	–	–
COc1ccncc1CN1C(=O)c2cccc(c2)S(=O)(=O)Nc2nc(cc(-c3c(C)cccc3C)n2)OC[C@H]1CC(C)C [Compound 421]	+++ (+++ is >60%)	< 1000	–	–
COc1ccc(CN2C(=O)c3cccc(c3)S(=O)(=O)Nc3nc(cc(-c4c(C)cccc4C)n3)OC[C@H]2CC(C)C)cn1 [Compound 422]	+++ (+++ is >60%)	< 1000	–	–
